Measurements published in ChEMBL document CHEMBL5506038, “Discovery of LC-MI-3: A Potent and Orally Bioavailable Degrader of Interleukin-1 Receptor-Associated Kinase 4 for the Treatment of Inflammatory Diseases” (J Med Chem, 2024).
Activity calls are given as the source filed them. No cut-off for these calls is given here.

Columns and labels:
[1] = biological target: Protein cereblon/Interleukin-1 receptor-associated kinase 4 (Mus musculus, UniProt Q8C7D2+Q8R4K2); assay: PROTAC activity at IRAK4/CRBN in mouse RAW264.7 cells assessed as reduction in IRAK4 level incubated for 12 hrs by Western blot analysis; format: cell-based
[2] = biological target: T1, Protein cereblon/Interleukin-1 receptor-associated kinase 4 (Mus musculus) (UniProt Q8C7D2+Q8R4K2); assay: PROTAC activity at IRAK4/CRBN in mouse RAW264.7 cells assessed as induction of IRAK4 degradation at 25 to 2500 nM incubated for 12 hrs by Western blot analysis; format: cell-based; conditions: dose 25-2500 nM
[3] = biological target: T1, Protein cereblon/Interleukin-1 receptor-associated kinase 4 (Mus musculus); assay: PROTAC activity at IRAK4/CRBN in mouse RAW264.7 cells assessed as induction of IRAK4 degradation at 100 nM incubated for 12 hrs in presence of MG132 by Western blot analysis; format: cell-based
[4] = biological target: T1, Protein cereblon/Interleukin-1 receptor-associated kinase 4 (Mus musculus); assay: PROTAC activity at IRAK4/CRBN in mouse RAW264.7 cells assessed as reduction in IRAK4 level at 200 nM incubated for 12 hrs by proteomic analysis; format: cell-based
[5] = biological target: DNA-binding protein Ikaros (Homo sapiens) (UniProt Q13422); assay: Induction of IKZF1 degradation in human THP-1 cells upto 10000 nM incubated for 12 hrs by Western blotting analysis; format: cell-based
[6] = biological target: Sal-like protein 4 (Homo sapiens) (UniProt Q9UJQ4); assay: Induction of SALL4 degradation in human THP-1 cells upto 10000 nM incubated for 12 hrs by Western blotting analysis; format: cell-based
[7] = biological target: MAP kinase p38 (Mus musculus) (UniProt P47811+O08911+Q9WUI1+Q9Z1B7); assay: Inhibition of MAPK phosphorylation in LPS-induced mouse RAW264.7 cells at 1 uM pretreated with compound for 1 hr followed by LPS-induction and measured after 2 hrs by Western blot analysis; format: cell-based; conditions: time 3.0 hrs
[8] = tested on: RAW264.7; assay: Activation of NF-kappaB pathway in LPS-induced mouse RAW264.7 cells expressing EGFP at 5 uM pretreated with compound for 1 hr followed by LPS-induction and measured at 15 min by flow cytometry analysis; format: cell-based; conditions: filed as activator, time 75.0 min
[9] = tested on: RAW264.7; assay: Effect on TNFalpha mRNA expression in LPS-induced mouse RAW264.7 cells at 1 uM pretreated with compound for 1 hr followed by LPS-induction and measured after 6 hrs by RT-PCR analysis; format: functional, cell-based; conditions: time 7.0 hrs
[10] = AUC (0 to infinity) in Sprague-Dawley rat at 2 mg/kg, iv by LC-MS/MS analysis; format: ADME, organism-based; conditions: in vivo
[11] = AUC (0 to infinity) in Sprague-Dawley rat at 20 mg/kg, po by LC-MS/MS analysis; format: ADME, organism-based; conditions: in vivo
[12] = Clearance in Sprague-Dawley rat at 2 mg/kg, iv by LC-MS/MS analysis; format: ADME, organism-based; conditions: in vivo
[13] = tested on: Mus musculus; assay: Anti-inflammatory activity against LPS-induced acute […] injury C57BL/6 mouse model assessed as reduction in IL-6 level in BALF at 20 mg/kg, IG pretreated with compound for 12 hrs followed by LPS-induction and measured after 6 hrs by ELISA analysis; format: functional, organism-based; conditions: time 18.0 hrs
[14] = Toxicity in C57BL/6 mouse assessed as lung damage at 20 mg/kg, IG by H and E staining based analysis; format: organism-based; conditions: in vivo, po
[15] = tested on: RAW264.7; assay: Protection against Escherichia coli-induced sepsis in mouse RAW264.7 cells assessed as reduction in TNF-alpha level at 1 uM pretreated with compound for 6 hrs followed by Escherichia coli-induction and measured after 6 hrs by RT-PCR analysis; format: functional, cell-based; conditions: time 12.0 hrs
[16] = tested on: Mus musculus; assay: Protection against LPS-induced sepsis in C57BL/6 mouse model assessed as improvement in survival rate at 20 mg/kg, IG measured at 12 hrs; format: functional, organism-based
[17] = tested on: Mus musculus; assay: Anti-inflammatory activity in imiquimod-induced C57BL/6 mouse psoriasis model assessed as improvement in scaling at 20 mg/kg, po administered twice daily measured for 6 days; format: functional, organism-based; conditions: time 6.0 day
[18] = tested on: Mus musculus; assay: Anti-inflammatory activity in imiquimod-induced C57BL/6 mouse psoriasis model assessed as improvement in erythema score at 20 mg/kg, po administered twice daily measured for 6 days; format: functional, organism-based; conditions: time 6.0 day
[19] = tested on: Mus musculus; assay: Anti-inflammatory activity in imiquimod-induced C57BL/6 mouse psoriasis model assessed as reduction in dermal inflammatory cell infiltration at 20 mg/kg, po administered twice daily measured for 6 days by H and E staining based analysis; format: functional, organism-based; conditions: time 6.0 day
[20] = Toxicity in C57BL/6 mouse assessed as effect on body weight at 20 mg/kg, po measured for 6 days; format: organism-based; conditions: in vivo, 144 h, time 6 day
[21] = Drug metabolism in rat hepatocyte assessed as mono-hydroxylation mediated metabolite formation by LC-MS/MS analysis; format: ADME, cell-based; conditions: hepatocytes

T1 sequence (Q8C7D2 whole entry, looked up): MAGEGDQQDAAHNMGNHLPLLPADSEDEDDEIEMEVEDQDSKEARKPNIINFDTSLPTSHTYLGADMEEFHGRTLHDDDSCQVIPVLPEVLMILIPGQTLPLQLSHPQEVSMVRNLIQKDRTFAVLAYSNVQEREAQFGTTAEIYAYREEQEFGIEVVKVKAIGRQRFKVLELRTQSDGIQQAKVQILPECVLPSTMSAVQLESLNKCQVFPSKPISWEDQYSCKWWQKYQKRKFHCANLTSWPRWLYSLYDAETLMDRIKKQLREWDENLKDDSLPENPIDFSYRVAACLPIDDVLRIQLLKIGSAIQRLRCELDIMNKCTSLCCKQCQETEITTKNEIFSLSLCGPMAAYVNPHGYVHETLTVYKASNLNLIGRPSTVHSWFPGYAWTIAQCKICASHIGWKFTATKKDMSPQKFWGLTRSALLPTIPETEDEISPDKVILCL
T1 sequence (Q8R4K2 whole entry, looked up): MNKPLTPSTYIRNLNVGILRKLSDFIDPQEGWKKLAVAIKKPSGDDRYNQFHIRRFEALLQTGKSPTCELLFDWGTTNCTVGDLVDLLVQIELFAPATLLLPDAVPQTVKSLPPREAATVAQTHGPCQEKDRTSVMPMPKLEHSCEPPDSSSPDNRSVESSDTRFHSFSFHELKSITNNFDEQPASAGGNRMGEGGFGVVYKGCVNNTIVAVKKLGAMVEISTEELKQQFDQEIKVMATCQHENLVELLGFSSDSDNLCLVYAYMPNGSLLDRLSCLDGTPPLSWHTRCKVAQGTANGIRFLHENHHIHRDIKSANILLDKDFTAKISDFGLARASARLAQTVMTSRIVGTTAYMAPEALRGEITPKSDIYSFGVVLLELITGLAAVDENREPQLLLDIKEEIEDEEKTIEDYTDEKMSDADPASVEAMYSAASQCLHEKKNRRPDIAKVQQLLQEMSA
Sequence of DNA-binding protein Ikaros (Homo sapiens) (Q13422 whole entry): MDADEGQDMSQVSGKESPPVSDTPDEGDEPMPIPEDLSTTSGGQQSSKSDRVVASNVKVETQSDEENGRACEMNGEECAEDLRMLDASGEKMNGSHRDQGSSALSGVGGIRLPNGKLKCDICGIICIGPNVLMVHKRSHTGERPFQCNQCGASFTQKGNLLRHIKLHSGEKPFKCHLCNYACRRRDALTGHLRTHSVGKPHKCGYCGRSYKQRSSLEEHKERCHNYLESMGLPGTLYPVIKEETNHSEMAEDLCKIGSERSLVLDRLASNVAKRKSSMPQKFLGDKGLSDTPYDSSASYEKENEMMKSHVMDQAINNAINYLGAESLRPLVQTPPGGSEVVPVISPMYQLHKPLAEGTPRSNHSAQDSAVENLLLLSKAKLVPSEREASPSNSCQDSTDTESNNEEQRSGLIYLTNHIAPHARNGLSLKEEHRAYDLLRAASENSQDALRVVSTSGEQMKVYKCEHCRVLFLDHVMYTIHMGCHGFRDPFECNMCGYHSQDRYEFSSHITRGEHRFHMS
Sequence of Sal-like protein 4 (Homo sapiens) (Q9UJQ4 whole entry): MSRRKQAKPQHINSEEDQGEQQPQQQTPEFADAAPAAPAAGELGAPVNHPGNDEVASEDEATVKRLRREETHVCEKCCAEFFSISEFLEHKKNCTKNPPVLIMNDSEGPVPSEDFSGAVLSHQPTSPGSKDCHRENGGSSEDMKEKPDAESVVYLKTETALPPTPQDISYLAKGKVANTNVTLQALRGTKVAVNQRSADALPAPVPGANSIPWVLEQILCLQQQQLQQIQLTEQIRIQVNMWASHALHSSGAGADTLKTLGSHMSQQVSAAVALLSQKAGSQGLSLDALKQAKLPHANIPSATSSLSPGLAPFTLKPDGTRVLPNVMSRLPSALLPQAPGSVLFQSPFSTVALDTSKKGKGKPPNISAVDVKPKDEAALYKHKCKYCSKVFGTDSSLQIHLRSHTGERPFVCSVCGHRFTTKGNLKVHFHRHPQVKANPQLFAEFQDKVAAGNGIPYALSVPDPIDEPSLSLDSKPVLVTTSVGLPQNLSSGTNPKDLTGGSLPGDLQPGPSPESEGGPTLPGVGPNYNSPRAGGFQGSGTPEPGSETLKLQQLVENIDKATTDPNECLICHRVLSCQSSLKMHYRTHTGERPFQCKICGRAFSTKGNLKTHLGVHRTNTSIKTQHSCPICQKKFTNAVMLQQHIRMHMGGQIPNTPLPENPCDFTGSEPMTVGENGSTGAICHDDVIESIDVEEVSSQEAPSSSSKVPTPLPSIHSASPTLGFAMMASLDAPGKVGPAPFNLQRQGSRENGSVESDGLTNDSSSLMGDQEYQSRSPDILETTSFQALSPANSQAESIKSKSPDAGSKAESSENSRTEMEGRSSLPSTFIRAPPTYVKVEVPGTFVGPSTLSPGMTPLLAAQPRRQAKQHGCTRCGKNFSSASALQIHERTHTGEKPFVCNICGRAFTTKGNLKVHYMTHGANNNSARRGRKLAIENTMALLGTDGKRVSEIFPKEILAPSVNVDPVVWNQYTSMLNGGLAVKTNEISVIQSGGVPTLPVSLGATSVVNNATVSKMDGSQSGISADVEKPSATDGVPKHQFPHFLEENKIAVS
Sequence of Protein cereblon/Interleukin-1 receptor-associated kinase 4 (Q8C7D2 whole entry): as the sequence (Q8C7D2 whole entry, looked up) above
Sequence of Protein cereblon/Interleukin-1 receptor-associated kinase 4 (Q8R4K2 whole entry): as the sequence (Q8R4K2 whole entry, looked up) above

DC50 [1]: 0.0474 µM
Activity [2]: inactive
Activity [3]: Active
Activity [4]: Active
Activity [5]: inactive
Activity [6]: inactive
inhibition [7]: Active
AUC(0-inf) [10]: 1330 ng·h/mL
AUC(0-inf) [11]: 1080 ng·h/mL
clearance [12]: 25.6 mL/min/kg
Drug metabolism [21]: Metabolite_Detected
SMILES: COc1cc(N2CCN(C(=O)CCOCC#Cc3ccc4c(c3)C(=O)N(C3CCC(=O)NC3=O)C4=O)CC2)ccc1NC(=O)c1cccc(-c2ccn[nH]2)n1 (stereo unspecified)
Activity [8]: Active
Activity [9]: Active
Activity [13]: Active
Activity [14]: Non-Toxic
Activity [15]: Active
Activity [16]: Active
Activity [17]: Active
Activity [18]: Active
Activity [19]: Active
Activity [20]: Non-Toxic
